Measurements: publication PMC7955072 (Nature Communications, 2021)
Entries after “also recorded” stand apart in the source; their conditions may differ.

Legend:
IleRS = conditions: cited from earlier work
full-length ScIleRS = full-length ScIleRS (Saccharomyces cerevisiae, UniProt P09436); assay: Fluorescence-based thermal shift assay (TSA), full-length ScIleRS wild-type; type: binding; conditions: for △Tm: Wild-type, difference between Tm with and without ligands; for increase of Tm value of ScIleRS: single ligand (50 μM RM-A, 2 mM L-isoleucine, 2 mM ATP or 50 μM Ile-AMS), Tm without ligand approximately 54 °C
Sequence of full-length ScIleRS (P09436 whole entry): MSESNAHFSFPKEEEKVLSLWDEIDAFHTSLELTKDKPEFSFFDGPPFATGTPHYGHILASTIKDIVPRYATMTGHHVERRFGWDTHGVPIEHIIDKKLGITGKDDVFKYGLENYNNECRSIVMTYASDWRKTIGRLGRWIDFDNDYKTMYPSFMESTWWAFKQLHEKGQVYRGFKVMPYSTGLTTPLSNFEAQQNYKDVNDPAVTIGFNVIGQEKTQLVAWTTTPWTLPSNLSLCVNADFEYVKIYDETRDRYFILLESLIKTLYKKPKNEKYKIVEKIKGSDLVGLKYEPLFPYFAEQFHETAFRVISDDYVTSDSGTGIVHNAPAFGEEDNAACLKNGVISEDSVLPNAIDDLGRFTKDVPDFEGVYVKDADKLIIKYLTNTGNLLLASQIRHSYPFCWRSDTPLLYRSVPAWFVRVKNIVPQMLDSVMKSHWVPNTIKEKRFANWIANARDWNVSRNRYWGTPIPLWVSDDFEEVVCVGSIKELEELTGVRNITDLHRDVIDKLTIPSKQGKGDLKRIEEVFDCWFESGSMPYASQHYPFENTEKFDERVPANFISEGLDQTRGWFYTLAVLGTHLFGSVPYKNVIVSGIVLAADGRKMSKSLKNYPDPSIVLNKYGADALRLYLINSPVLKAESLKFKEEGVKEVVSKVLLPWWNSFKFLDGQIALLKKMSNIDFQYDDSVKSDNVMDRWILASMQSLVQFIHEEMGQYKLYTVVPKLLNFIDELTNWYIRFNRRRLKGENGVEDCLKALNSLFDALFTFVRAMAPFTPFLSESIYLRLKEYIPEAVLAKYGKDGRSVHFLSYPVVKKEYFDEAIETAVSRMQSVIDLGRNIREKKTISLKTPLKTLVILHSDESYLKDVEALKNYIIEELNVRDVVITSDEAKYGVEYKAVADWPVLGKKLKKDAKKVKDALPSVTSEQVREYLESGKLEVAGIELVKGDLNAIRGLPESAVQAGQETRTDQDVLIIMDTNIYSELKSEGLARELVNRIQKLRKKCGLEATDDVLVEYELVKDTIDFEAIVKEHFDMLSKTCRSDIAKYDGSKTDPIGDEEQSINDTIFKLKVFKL
Experimental: (§1) Ligand binding usually stabilizes the protein during the thermal denaturation process, and tighter binding usually causes a larger positive shift in the protein melting temperature (Tm)[45]. […] The fluorescence intensity was recorded by a StepOnePlus Real-Time PCR instrument (Life Technologies), and the maximums of the first derivatives were determined to calculate Tm values. Each Tm value was an average of triple assays.

ScIleRS F191A = ScIleRS F191A (Saccharomyces cerevisiae, UniProt P09436, F191A); type: binding
Sequence of ScIleRS F191A (P09436 whole entry F191A): as the sequence (P09436 whole entry) above, with F191A counted along it
Experimental: as §1

ScIleRS W449A = ScIleRS W449A (Saccharomyces cerevisiae, UniProt P09436, W449A); type: binding
Sequence of ScIleRS W449A (P09436 whole entry W449A): as the sequence (P09436 whole entry) above, with W449A counted along it
Experimental: as §1

ScIleRS V89A = ScIleRS V89A (Saccharomyces cerevisiae, UniProt P09436, V89A); type: binding
Sequence of ScIleRS V89A (P09436 whole entry V89A): as the sequence (P09436 whole entry) above, with V89A counted along it
Experimental: as §1

ScIleRS Y571A = ScIleRS Y571A (Saccharomyces cerevisiae, UniProt P09436, Y571A); type: binding
Sequence of ScIleRS Y571A (P09436 whole entry Y571A): as the sequence (P09436 whole entry) above, with Y571A counted along it
Experimental: as §1

ScIleRS W402A = ScIleRS W402A (Saccharomyces cerevisiae, UniProt P09436, W402A); type: binding
Sequence of ScIleRS W402A (P09436 whole entry W402A): as the sequence (P09436 whole entry) above, with W402A counted along it
Experimental: as §1

ScIleRS R460A = ScIleRS R460A (Saccharomyces cerevisiae, UniProt P09436, R460A); type: binding
Sequence of ScIleRS R460A (P09436 whole entry R460A): as the sequence (P09436 whole entry) above, with R460A counted along it
Experimental: as §1

ScIleRS F48Y = ScIleRS F48Y (Saccharomyces cerevisiae, UniProt P09436, F48Y); type: binding
Sequence of ScIleRS F48Y (P09436 whole entry F48Y): as the sequence (P09436 whole entry) above, with F48Y counted along it
Experimental: as §1

ScIleRS R454A = ScIleRS R454A (Saccharomyces cerevisiae, UniProt P09436, R454A); type: binding
Sequence of ScIleRS R454A (P09436 whole entry R454A): as the sequence (P09436 whole entry) above, with R454A counted along it
Experimental: as §1

ScIleRS del_KMSKS = ScIleRS del_KMSKS (Saccharomyces cerevisiae, UniProt P09436, DEL601-605/K608S/L607G); type: binding
Sequence of ScIleRS del_KMSKS (P09436 other isoform, or with tags, fused parts or gaps DEL601-605/L607G/K608S): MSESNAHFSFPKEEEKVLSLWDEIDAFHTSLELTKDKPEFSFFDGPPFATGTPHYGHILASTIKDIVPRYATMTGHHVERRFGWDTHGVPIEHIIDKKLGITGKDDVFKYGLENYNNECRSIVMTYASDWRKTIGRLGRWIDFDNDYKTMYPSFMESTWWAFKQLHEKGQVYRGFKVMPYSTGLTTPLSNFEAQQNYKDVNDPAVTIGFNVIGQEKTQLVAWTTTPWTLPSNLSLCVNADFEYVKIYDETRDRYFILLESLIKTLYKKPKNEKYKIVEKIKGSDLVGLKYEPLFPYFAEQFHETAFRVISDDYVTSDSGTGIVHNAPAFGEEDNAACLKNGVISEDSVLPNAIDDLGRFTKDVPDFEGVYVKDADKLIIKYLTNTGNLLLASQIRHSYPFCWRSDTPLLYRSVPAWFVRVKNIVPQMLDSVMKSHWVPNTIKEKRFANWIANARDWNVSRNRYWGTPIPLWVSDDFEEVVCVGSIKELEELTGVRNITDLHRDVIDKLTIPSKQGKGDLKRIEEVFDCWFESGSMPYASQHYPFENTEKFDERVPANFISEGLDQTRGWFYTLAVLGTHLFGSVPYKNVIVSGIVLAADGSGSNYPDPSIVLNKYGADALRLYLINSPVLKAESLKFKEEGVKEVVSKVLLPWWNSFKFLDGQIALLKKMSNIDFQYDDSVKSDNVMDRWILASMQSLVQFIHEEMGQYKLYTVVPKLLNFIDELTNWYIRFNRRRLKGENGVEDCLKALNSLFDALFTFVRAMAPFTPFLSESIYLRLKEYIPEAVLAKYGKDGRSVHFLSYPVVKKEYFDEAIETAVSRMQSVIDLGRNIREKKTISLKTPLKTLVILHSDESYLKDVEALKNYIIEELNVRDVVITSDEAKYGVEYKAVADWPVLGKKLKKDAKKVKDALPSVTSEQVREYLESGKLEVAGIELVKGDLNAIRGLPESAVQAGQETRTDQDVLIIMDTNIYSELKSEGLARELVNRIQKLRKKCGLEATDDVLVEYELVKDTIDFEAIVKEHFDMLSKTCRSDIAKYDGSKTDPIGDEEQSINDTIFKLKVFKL
Experimental: as §1

ScIleRS F48A = ScIleRS F48A (Saccharomyces cerevisiae, UniProt P09436, F48A); type: binding
Sequence of ScIleRS F48A (P09436 whole entry F48A): as the sequence (P09436 whole entry) above, with F48A counted along it
Experimental: as §1

ScIleRS P90A = ScIleRS P90A (Saccharomyces cerevisiae, UniProt P09436, P90A); type: binding
Sequence of ScIleRS P90A (P09436 whole entry P90A): as the sequence (P09436 whole entry) above, with P90A counted along it
Experimental: as §1

ScIleRS W456A = ScIleRS W456A (Saccharomyces cerevisiae, UniProt P09436, W456A); type: binding
Sequence of ScIleRS W456A (P09436 whole entry W456A): as the sequence (P09436 whole entry) above, with W456A counted along it
Experimental: as §1

ScIleRS W529A = ScIleRS W529A (Saccharomyces cerevisiae, UniProt P09436, W529A); type: binding
Sequence of ScIleRS W529A (P09436 whole entry W529A): as the sequence (P09436 whole entry) above, with W529A counted along it
Experimental: as §1

ScIleRS R462A = ScIleRS R462A (Saccharomyces cerevisiae, UniProt P09436, R462A); type: binding
Sequence of ScIleRS R462A (P09436 whole entry R462A): as the sequence (P09436 whole entry) above, with R462A counted along it
Experimental: as §1

ScIleRS D527A = ScIleRS D527A (Saccharomyces cerevisiae, UniProt P09436, D527A); type: binding
Sequence of ScIleRS D527A (P09436 whole entry D527A): as the sequence (P09436 whole entry) above, with D527A counted along it
Experimental: as §1

ScIleRS T572A = ScIleRS T572A (Saccharomyces cerevisiae, UniProt P09436, T572A); type: binding
Sequence of ScIleRS T572A (P09436 whole entry T572A): as the sequence (P09436 whole entry) above, with T572A counted along it
Experimental: as §1

[1] = target: C-terminal truncated ScIleRS (residues 1-984) (Saccharomyces cerevisiae, UniProt P09436); assay: Fluorescence-based thermal shift assay (TSA), C-terminal truncated ScIleRS; type: binding; conditions: protein bound with copurified Ile-AMP
Sequence of C-terminal truncated ScIleRS (residues 1-984) (P09436 1-984): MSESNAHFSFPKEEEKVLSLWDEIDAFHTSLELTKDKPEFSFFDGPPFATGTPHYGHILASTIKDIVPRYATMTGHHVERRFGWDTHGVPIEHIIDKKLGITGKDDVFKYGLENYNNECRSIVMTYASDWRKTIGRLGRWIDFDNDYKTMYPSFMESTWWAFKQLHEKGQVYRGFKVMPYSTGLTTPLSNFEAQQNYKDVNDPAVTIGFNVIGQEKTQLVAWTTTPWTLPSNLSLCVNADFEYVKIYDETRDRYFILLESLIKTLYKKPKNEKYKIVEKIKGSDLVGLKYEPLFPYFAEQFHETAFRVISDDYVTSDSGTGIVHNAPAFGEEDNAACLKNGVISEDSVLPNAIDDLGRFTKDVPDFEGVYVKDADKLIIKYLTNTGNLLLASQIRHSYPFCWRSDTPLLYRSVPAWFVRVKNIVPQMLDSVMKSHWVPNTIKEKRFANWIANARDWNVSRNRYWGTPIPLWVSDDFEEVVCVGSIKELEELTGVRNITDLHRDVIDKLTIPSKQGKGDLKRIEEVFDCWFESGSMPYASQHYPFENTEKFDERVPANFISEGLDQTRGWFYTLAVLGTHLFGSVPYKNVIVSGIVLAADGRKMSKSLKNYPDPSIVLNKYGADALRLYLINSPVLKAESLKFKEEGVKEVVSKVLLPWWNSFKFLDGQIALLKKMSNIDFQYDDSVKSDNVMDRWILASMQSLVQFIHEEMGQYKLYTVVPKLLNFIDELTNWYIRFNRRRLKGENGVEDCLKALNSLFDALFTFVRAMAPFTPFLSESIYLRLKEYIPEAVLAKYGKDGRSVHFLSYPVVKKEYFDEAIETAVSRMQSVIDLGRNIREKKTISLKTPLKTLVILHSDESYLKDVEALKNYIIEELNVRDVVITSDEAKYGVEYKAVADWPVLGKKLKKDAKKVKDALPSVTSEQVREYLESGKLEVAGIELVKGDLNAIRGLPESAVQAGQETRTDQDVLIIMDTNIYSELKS
Experimental: The binding of RM-A to IleRS and the impact of intermediate analogue (Ile-AMS, MedChemExpress) or substrates on binding were evaluated by the fluorescence-based thermal shift assay (TSA). Ligand binding usually stabilizes the protein during the thermal denaturation process, and tighter binding usually causes a larger positive shift in the protein melting temperature (Tm)[45]. […]. The mixtures were incubated at 25 °C for 10 min and then heated from 25 °C to 95 °C at a rate of 1 °C/min. The fluorescence intensity was recorded by a StepOnePlus Real-Time PCR instrument (Life Technologies), and the maximums of the first derivatives were determined to calculate Tm values. Each Tm value was an average of triple assays.

Molecule	△Tm (full-length ScIleRS) [°C]	increase of Tm value of ScIleRS (full-length ScIleRS)	△Tm (ScIleRS F191A) [°C]	△Tm (ScIleRS W449A) [°C]	△Tm (ScIleRS V89A) [°C]	△Tm (ScIleRS Y571A) [°C]	△Tm (ScIleRS W402A) [°C]	△Tm (ScIleRS R460A) [°C]	△Tm (ScIleRS F48Y) [°C]	△Tm (ScIleRS R454A) [°C]	△Tm (ScIleRS del_KMSKS) [°C]	△Tm (ScIleRS F48A) [°C]	△Tm (ScIleRS P90A) [°C]	△Tm (ScIleRS W456A) [°C]	△Tm (ScIleRS W529A) [°C]	△Tm (ScIleRS R462A) [°C]	△Tm (ScIleRS D527A) [°C]	△Tm (ScIleRS T572A) [°C]	Tm value of C-terminal truncated ScIleRS [1]	further results
CC(/C=C/[C@H](O)[C@@H](C)/C=C/C(=O)O)=C\C[C@H]1O[C@@]2(CC[C@H](C)[C@H](/C=C/C(C)=C/C(=O)O)O2)CC[C@@H]1C [SF-A, Spirofungin A]	–	–	–	–	–	–	–	–	–	–	–	–	–	–	–	–	–	–	–	inhibition of IleRS (IleRS): only weakly inhibit
reveromycin T [RM-T]	–	–	–	–	–	–	–	–	–	–	–	–	–	–	–	–	–	–	–	inhibitory activity against IleRS compared with RM-A (IleRS): stronger inhibitory activity; also recorded: even higher inhibitory activity
CC[C@H](C)[C@H](N)C(=O)O [L-isoleucine]	7.9	~8 °C	8.3	7.8	4.7	4	6.9	3.1	4.4	6.6	8.5	0.2	6.4	0.7	1.9	4	5.2	4.8	not improved	–
CC[C@H](C)[C@H](N)C(=O)NS(=O)(=O)OC[C@H]1O[C@@H](n2cnc3c(N)ncnc32)[C@H](O)[C@@H]1O [Ile-AMS]	23.4	~23 °C	26.5	24.9	24.7	24.6	24.2	25.7	21.6	21.6	20.2	12.5	22.1	18.8	18.4	26	24.2	22.7	–	–
Nc1ncnc2c1ncn2[C@@H]1O[C@H](COP(=O)(O)OP(=O)(O)OP(=O)(O)O)[C@@H](O)[C@H]1O [ATP]	–	approximately 4 °C	–	–	–	–	–	–	–	–	–	–	–	–	–	–	–	–	not improved	–
